Series [1] can be described thus: in vivo. The conditions noted are these: APP YAC Tg, mouse, brain, 50 mg/kg.
The nature of series [2]: in vivo. The conditions noted are these: APP YAC Tg, mouse, plasma, 50 mg/kg.
The nature of series [3]: Drug metabolism in dog urine assessed as oxidation of benzoazepinone. The class given is ADME, tissue-based, Canis lupus familiaris.
Series [4] can be described thus: Drug metabolism in dog hepatocytes assessed as oxidation of benzoazepinone. The class given is ADME, cell-based, Canis lupus familiaris, Hepatocyte.
Series [5] in a line: in vitro. The conditions noted are these: human, hepatocytes.
For a further series, the species on record is Canis familiaris. Conditions: dog, in vivo, po, 0.5 mg/kg.
Series [6] can be described thus: in vivo. The conditions noted are these: Sprague-Dawley, rat, iv, 1 mg/kg.
Series [7] in a line: in vivo. Conditions: Sprague-Dawley, rat, iv, 1 mg/kg. This is another data set of the same source.
Series [8] is described as follows: Ratio of drug level in brain to plasma in APP YAC Tg mouse model at 30 mg/kg after 6 hrs. The format is ADME, organism-based. The conditions noted are these: brain and plasma, read-out: BPR.
Series [9] is described as follows: in vitro. Conditions: pig, LLC-PK1.
Series [10] can be described thus: in vivo. Conditions: beagle, dog.
Series [11] can be described thus: physchem. The conditions noted are these: buffer, pH 2.
The nature of series [12]: physchem. The conditions noted are these: buffer, pH 7.
Series [13] is described as follows: Drug metabolism in dog hepatocytes assessed as formation of methyl ester cleavage product. The class given is ADME, cell-based, Canis lupus familiaris, Hepatocyte.
Series [14] is described as follows: in vivo. The conditions noted are these: beagle, dog, iv.
Series [15] can be described thus: in vitro. Conditions: dog, hepatocytes.
Series [16] can be described thus: Drug uptake in brain of APP YAC Tg mouse model at 30 mg/kg after 6 hrs. The class given is ADME, organism-based. Conditions: read-out: Drug uptake.
Series [17] can be described thus: in vivo. Conditions: beagle, dog, iv. The source holds these as a separate data set.
Series [18] in a line: Plasma concentration in APP YAC Tg mouse model at 30 mg/kg after 6 hrs. The format is ADME, organism-based.
Series [19] is described as follows: in vitro. Conditions: rat, hepatocytes.
Series [20] in a line: Drug metabolism in dog urine assessed as oxidation of methylimidazole. The format is ADME, tissue-based, Canis lupus familiaris.
Series [21] can be described thus: in vivo. Conditions: Sprague-Dawley, rat, po, 2 mg/kg.
A short description of series [22]: in vivo. Conditions: Sprague-Dawley, rat.
Series [23] is described as follows: Drug metabolism in dog urine assessed as formation of methyl ester cleavage product. The format is ADME, tissue-based, Canis lupus familiaris.
Series [24] is described as follows: in vivo. Conditions: APP YAC Tg, mouse, brain, 100 mg/kg.
Series [25] is described as follows: in vivo. The conditions noted are these: APP YAC Tg, mouse, plasma, 100 mg/kg.

Each structure is given as a SMILES string. ≈ marks a conversion by molar mass, not a printed value.

As for `Cc1cn(-c2ccc(-c3cn([C@H]4CCc5c(F)cccc5N(CC(F)(F)F)C4=O)nn3)cc2F)cn1`, the results for the concentration at 6 h in “in vivo [1]” and in “in vivo [2]” were 6.8 µM and 15 µM, respectively.

The CLint scaled is a measure of how fast metabolising enzymes remove a compound, apart from limits set by blood flow. For orientation: clearance means a measure of how efficiently the substance is removed, as volume per time. Read a high clearance as efficient removal. As a reminder, the Vd is the apparent volume that relates the amount in the body to the concentration in plasma or blood. A high value points to wide distribution into tissue. The Papp is a coefficient for how fast a substance crosses the barrier. By half-life is commonly meant the time in which the quantity being followed falls by half. In general, solubility refers to how much of the substance goes into solution per volume. A lower solubility goes with a poorly soluble substance. For orientation: bioavailability means the share of a dose that reaches the circulation, judged against a reference dose that is usually intravenous. Low readings indicate poor availability, high ones good availability. Turning to `COc1cc(-c2cn([C@H]3CCc4c(F)cccc4N(CC(F)(F)F)C3=O)nn2)ccc1-n1cnc(C)c1`, the Drug metabolism entry in series [3] is given as “metabolite_detected”; in series [4] it was “metabolite_detected”; in series [13], “metabolite_notdetected”; in [20] it was “metabolite_detected”; in series [23], “metabolite_notdetected”. Also, the CLint scaled in the series “in vitro [5]” came out at 94 mL/min/kg; in the series “in vitro [15]”, 400 mL/min/kg; in “in vitro [19]” it was 210 mL/min/kg. In addition, the F result in the series filed under Canis familiaris was “BLD”. For the same molecule, the clearance in the series “in vivo [6]” came out at 38 mL/min/kg; in the series “in vivo [17]”, 98 mL/min/kg. For the same molecule, the figures for the Vd in “in vivo [7]” and in “in vivo [14]” were 4.8 L/kg and 5.6 L/kg, respectively. The Kp at 6 h in [8] is 0.3. In addition, in “in vitro [9]”, the Papp came out at 21 ×10⁻⁶ cm/s. In addition, the results for the half-life in the series “in vivo [10]” and in the series “in vivo [22]” were 42 min and 48 min, respectively. Besides, the solubility in “physchem [11]” came to 170 µM (≈ 87.5 µg/mL); in “physchem [12]”, 4.2 µM (≈ 2.16 µg/mL). Besides, the concentration at 6 h was determined as 1600 nM in [16] and 5.1 µM in series [18]. The bioavailability in the series “in vivo [21]” came out at 100%.

Turning to `COc1cc(-c2cn([C@H]3CCc4c(F)cccc4N(CC(F)(F)F)C3=O)nn2)ccc1-n1cnc(C(F)(F)F)c1`, the concentration at 6 h in the series “in vivo [24]” turned out to be 870 nM; in the series “in vivo [25]” it was 4.5 µM.

The values above are taken from ChEMBL document CHEMBL3608233, “Potent benzoazepinone γ-secretase modulators with improved bioavailability” (Bioorg Med Chem Lett, 2015).
